From ChEMBL document CHEMBL4725303, “New V1a receptor antagonist. Part 1. Synthesis and SAR development of urea derivatives” (Bioorg Med Chem Lett, 2020)

Experiments:
[1] = molecular target: T1, Vasopressin V1a receptor (Homo sapiens, UniProt P37288); test: Displacement of [3H]AVP from human V1a receptor expressed in […] cells assessed as dissociation constant by radioligand binding assay; assay type: cell-based, 1321N1
Target sequence in this assay (P37288 whole entry): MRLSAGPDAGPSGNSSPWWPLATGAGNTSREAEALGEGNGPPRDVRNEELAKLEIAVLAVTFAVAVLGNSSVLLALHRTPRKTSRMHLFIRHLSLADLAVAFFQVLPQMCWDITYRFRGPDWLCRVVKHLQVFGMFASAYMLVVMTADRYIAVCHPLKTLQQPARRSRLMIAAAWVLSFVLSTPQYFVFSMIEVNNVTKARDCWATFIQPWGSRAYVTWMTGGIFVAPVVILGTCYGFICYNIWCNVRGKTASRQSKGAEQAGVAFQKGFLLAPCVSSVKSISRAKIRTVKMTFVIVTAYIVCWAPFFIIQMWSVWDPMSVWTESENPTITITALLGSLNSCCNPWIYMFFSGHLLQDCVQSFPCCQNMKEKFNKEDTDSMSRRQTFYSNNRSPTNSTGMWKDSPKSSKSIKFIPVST

[2] = molecular target: T1, Vasopressin V1a receptor; test: Antagonist activity at human V1a receptor expressed in human 1321N1 cells assessed as decrease in Arg8-vasopressin-stimulated calcium flux by fluorometric calcium assay; assay type: functional, cell-based
Target sequence in this assay (P37288 whole entry): as above

[3] = molecular target: T1, Vasopressin V1a receptor; test: Antagonist activity at human V1a receptor expressed in human 1321N1 cells assessed as decrease in Arg8-vasopressin-stimulated calcium flux at 10 uM by fluorometric calcium assay relative to control; assay type: functional, cell-based
Target sequence in this assay (P37288 whole entry, looked up): as the sequence (P37288 whole entry) above

[4] = Efflux ratio of Apparent permeability across apical to basolateral side in human Caco-2 cells at 10 uM by HPLC-UV or UHPLC-MS/MS analysis; assay type: ADME, cell-based
[5] = Apparent permeability across apical to basolateral side in human Caco-2 cells at 10 uM by HPLC-UV or UHPLC-MS/MS analysis; assay type: ADME, cell-based
[6] = Metabolic stability in human liver microsomes assessed as intrinsic clearance at 1 uM in presence of NADPH by HPLC-UV analysis; assay type: ADME, Microsome; conditions: read-out: CLH
[7] = Metabolic stability in Wistar rat liver microsomes assessed as intrinsic clearance at 1 uM in presence of NADPH by HPLC-UV analysis; assay type: ADME, Microsome; conditions: read-out: CLH
[8] = Metabolic stability in NMRI mouse liver microsomes assessed as intrinsic clearance at 1 uM in presence of NADPH by HPLC-UV analysis; assay type: ADME, Microsome; conditions: read-out: CLH
[9] = Apparent permeability across apical to basolateral side in human Caco-2 cells at 1 uM by HPLC-UV or UHPLC-MS/MS analysis; assay type: ADME, cell-based

Work on Cc1ccccc1N1CCN(C(=O)C2CN(C(=O)C3CCCCC3)Cc3cc(Cl)ccc32)CC1 (stereo in doubt; (-)-47) yielded a Ki [1] of 40 nM and an IC50 [2] of 280 nM.
In the case of Cc1ccccc1N1CCN(C(=O)N2CN(C(=O)C3CCCCC3)Cc3cc(Cl)ccc32)CC1, the Ki [1] is reported as 5 nM.
For C[C@@H]1CN(C(=O)N2CCNc3cc(Cl)ccc32)CCN1c1ccccn1, the inhibition ([3]; filed as antagonist) was 57% and the Ki [1] was 310 nM.
In the case of O=C(N1CCN(Cc2ccccc2)CC1)N1CCNc2cc(Cl)ccc21, the Ki [1] is reported as 164 nM and the IC50 [2] is reported as 8300 nM.
Compound CN1CCN(C(=O)N2CCN(c3ncccc3Cl)CC2)c2ccc(Cl)cc21 has a Ki [1] of 2 nM and an IC50 [2] of 55 nM.
With Cc1ccccc1N1CCN(C(=O)N2CN(C(=O)c3ccccc3)Cc3cc(Cl)ccc32)CC1 the Ki [1] was 3 nM and the IC50 [2] was 35 nM.
CN1CCN(C(=O)C2CCN(c3ccccn3)CC2)c2ccc(Cl)cc21 showed an efflux ratio at 10 µM [4] of 0.7, a Papp A→B at 10 µM [5] of 48 ×10⁻⁶ cm/s and a Ki [1] of 14 nM. The microsomal CLint at 1 µM [6] was 80 µL/min/mg, the microsomal CLint at 1 µM [7] was 404 µL/min/mg and the IC50 [2] was 260 nM. For the same compound, the microsomal CLint at 1 µM [8] was 132 µL/min/mg.
Compound CC(=O)N1CCN(C(=O)N2CCN(c3ccccc3C)CC2)c2ccc(F)cc21 has an inhibition ([3]; filed as antagonist) of 62% and a Ki [1] of 440 nM.
For O=C(N1CCC(N2CCCCC2)CC1)N1CCNc2cc(Cl)ccc21, the inhibition [3] was 11%.
Work on O=C(N1CCN(c2ncccc2Cl)CC1)N1CCNc2cc(Cl)ccc21 yielded a Ki [1] of 6 nM and an IC50 [2] of 170 nM.
With O=C(N1CCC2(CC1)OCc1ccccc12)N1CCNc2cc(Cl)ccc21 the Ki [1] was 4 nM and the IC50 [2] was 280 nM.
For Cc1ccccc1N1CCN(C(=O)N2CN(C(=O)C3CCCC3)Cc3cc(Cl)ccc32)CC1, the Ki [1] was 1 nM and the IC50 [2] was 11 nM.
In the case of Cc1ccccc1N1CCN(C(=O)N2CCNc3cc(Cl)ccc32)CC1, the Ki [1] is reported as 4.1 nM, the microsomal CLint at 1 µM [6] is reported as 210 µL/min/mg and the microsomal CLint at 1 µM [7] is reported as 265 µL/min/mg. It also gave a Papp A→B at 1 µM [9] of 17 ×10⁻⁶ cm/s, an IC50 [2] of 80 nM and a microsomal CLint at 1 µM [8] of 66 µL/min/mg.
Work on Cc1ccccc1N1CCN(C(=O)N2CN(S(C)(=O)=O)Cc3cc(Cl)ccc32)CC1 yielded a Ki [1] of 5.3 nM and an IC50 [2] of 20 nM.
Compound Cc1ccccc1N1CCN(C(=O)N2CNCc3cc(Cl)ccc32)CC1 has a Ki [1] of 3 nM and an IC50 [2] of 40 nM.
For C[C@H](NC(=O)[C@@H](CC(=O)N1CCC(N2CCCCC2)CC1)N1C(=O)[C@@H](N2C(=O)OC[C@@H]2c2ccccc2)[C@H]1/C=C/c1ccccc1)c1ccccc1, the Papp A→B at 10 µM [5] was 4.7 ×10⁻⁶ cm/s, the microsomal CLint at 1 µM [6] was 156 µL/min/mg and the microsomal CLint at 1 µM [7] was 31 µL/min/mg. The microsomal CLint at 1 µM [8] was 199 µL/min/mg.
Compound Cc1ccccc1N1CCN(C(=O)N2CCNc3ccc(Cl)cc32)CC1 has a Ki [1] of 560 nM and an IC50 [2] of 1400 nM.
Work on Cc1ccccc1N1CCN(C(=O)N2CN(C(=O)C(C)C)Cc3cc(Cl)ccc32)CC1 yielded a Ki [1] of 2.6 nM and an IC50 [2] of 11 nM.
For Cc1ccccc1N1CCN(C(=O)N2CCc3cc(Cl)ccc32)CC1, the Ki [1] was 15 nM and the IC50 [2] was 880 nM.
In the case of Cc1ccccc1N1CCN(C(=O)C2CN(C(=O)C(C)C)Cc3cc(Cl)ccc32)CC1 (racemic), the Ki [1] is reported as 5 nM and the IC50 [2] is reported as 135 nM.
Compound Cc1ccccc1N1CCN(C(=O)N2CCCc3cc(Cl)ccc32)CC1 has a Ki [1] of 4 nM and an IC50 [2] of 200 nM.
With Cc1ccccc1N1CCN(C(=O)N2CCN(C)c3cc(Cl)ccc32)CC1 the Ki [1] was 7 nM and the IC50 [2] was 300 nM.
For Cc1ccccc1N1CCN(C(=O)N2CN(C)Cc3cc(Cl)ccc32)CC1, the Ki [1] was 3 nM and the IC50 [2] was 85 nM.
Cc1ccccc1N1CCN(C(=O)C2CN(C(=O)C3CCCCC3)Cc3cc(Cl)ccc32)CC1 (single isomer, unassigned; (+)) gave a Ki [1] of 4 nM and an IC50 [2] of 21 nM.
O=C(N1CCN(c2ccccn2)CC1)N1CCNc2cc(Cl)ccc21 gave a Ki [1] of 160 nM and an IC50 [2] of 6800 nM.
For CC(=O)N1Cc2cc(Cl)ccc2N(C(=O)N2CCN(c3ccccc3C)CC2)C1, the efflux ratio at 10 µM [4] was 0.7, the Papp A→B at 10 µM [5] was 39 ×10⁻⁶ cm/s and the Ki [1] was 6 nM. For the same compound, the microsomal CLint at 1 µM [6] was 88 µL/min/mg, the microsomal CLint at 1 µM [7] was 212 µL/min/mg and the IC50 [2] was 50 nM. The microsomal CLint at 1 µM [8] was 324 µL/min/mg.
Work on Cc1ccccc1N1CCN(C(=O)N2CN(C(=O)C3CC3)Cc3cc(Cl)ccc32)CC1 yielded a Ki [1] of 3.3 nM and an IC50 [2] of 10 nM.
In the case of Cc1ccccc1N1CCN(C(=O)C2CN(C(=O)C3CC3)Cc3cc(Cl)ccc32)CC1 (single isomer, unassigned; (-)), the Ki [1] is reported as 80 nM.
Compound Cc1ccccc1N1CCN(C(=O)C2CN(C(=O)C3CCCCC3)Cc3cc(Cl)ccc32)CC1 (racemic) has a Ki [1] of 5 nM and an IC50 [2] of 40 nM.
Compound Cc1ccccc1N1CCN(C(=O)N2CCNc3ccccc32)CC1 has a Ki [1] of 70 nM and an IC50 [2] of 2800 nM.
Cc1cccnc1N1CCN(C(=O)N2CCNc3cc(Cl)ccc32)[C@H](C)C1 gave a Ki [1] of 70 nM and an IC50 [2] of 750 nM.
Compound Cc1ccccc1N1CCN(C(=O)N2CCCCc3cc(Cl)ccc32)CC1 has a Ki [1] of 5 nM and an IC50 [2] of 390 nM.
C[C@H]1CN(C(=O)N2CCNc3cc(Cl)ccc32)CCN1c1ccccn1 showed a Ki [1] of 62 nM and an IC50 [2] of 1000 nM.
For Cc1ccccc1N1CCN(C(=O)N2CN(C(=O)CO)Cc3cc(Cl)ccc32)CC1, the Ki [1] was 4 nM and the IC50 [2] was 35 nM.
Work on Cc1ccccc1N1CCN(C(=O)N2C[C@@H](C(=O)C3CCCC3)Cc3cc(Cl)ccc32)CC1 yielded a Ki [1] of 0.6 nM, a microsomal CLint at 1 µM [6] of 72 µL/min/mg and a microsomal CLint at 1 µM [7] of 170 µL/min/mg. It also gave a Papp A→B at 1 µM [9] of 10 ×10⁻⁶ cm/s, an IC50 [2] of 2.4 nM and a microsomal CLint at 1 µM [8] of 235 µL/min/mg.
Cc1ccccc1N1CCN(C(=O)C2CN(C(=O)C3CC3)Cc3cc(Cl)ccc32)CC1 (stereo in doubt; (+)-44) gave a Ki [1] of 5 nM and an IC50 [2] of 180 nM.
In the case of Cc1ccccc1N1CCN(C(=O)N2C[C@H](C(=O)C3CCCC3)Cc3cc(Cl)ccc32)CC1, the Ki [1] is reported as 2.3 nM and the IC50 [2] is reported as 25 nM.
Work on Cc1ccccc1N1CCN(C(=O)C2CN(C(=O)C3CC3)Cc3cc(Cl)ccc32)CC1 (racemic) yielded a Ki [1] of 25 nM.
Cc1cccnc1N1CCN(C(=O)N2CCNc3cc(Cl)ccc32)CC1 gave a Ki [1] of 2 nM and an IC50 [2] of 450 nM.
Cc1ccccc1N1CCN(C(=O)c2ccc(Cl)c(NC(=O)c3cccs3)c2)CC1 showed a Ki [1] of 170 nM and an IC50 [2] of 800 nM.
Work on Cc1ccccc1C1CCN(C(=O)N2CCNc3cc(Cl)ccc32)CC1 yielded a Ki [1] of 3 nM and an IC50 [2] of 380 nM.
CN(C)CCn1cc(C(=O)N2CCC3(CC2)OCc2ccccc23)c2ccc(Cl)cc21 [RO-5028442] gave an efflux ratio at 10 µM [4] of 0.9, a Papp A→B at 10 µM [5] of 15 ×10⁻⁶ cm/s and a Ki [1] of 5.5 nM. The microsomal CLint at 1 µM [6] was 20 µL/min/mg, the microsomal CLint at 1 µM [7] was 130 µL/min/mg and the IC50 [2] was 2 nM. For the same compound, the microsomal CLint at 1 µM [8] was 341 µL/min/mg.
In the case of Cc1ccccc1N1CCN(C(=O)N2CN(C(=O)C3(c4ccc(F)cc4)CC3)Cc3cc(Cl)ccc32)CC1, the Ki [1] is reported as 23 nM.
For Cc1ccccc1N1CCN(C(=O)C2CN(C(=O)C3CCCC3)Cc3cc(Cl)ccc32)CC1 (racemic), the Ki [1] was 6 nM, the microsomal CLint at 1 µM [6] was 188 µL/min/mg and the microsomal CLint at 1 µM [7] was 179 µL/min/mg. It also gave a Papp A→B at 1 µM [9] of 4.3 ×10⁻⁶ cm/s, an IC50 [2] of 35 nM and a microsomal CLint at 1 µM [8] of 341 µL/min/mg.
In the case of CC(=O)N1CCN(C(=O)N2CCN(c3ccccc3C)CC2)c2ccc(Cl)cc21, the Ki [1] is reported as 13 nM and the IC50 [2] is reported as 1400 nM.
